Experimental findings from article PMC10463376, “Design, synthesis, in vitro anticancer, molecular docking and SAR studies of new series of pyrrolo[2,3-d]pyrimidine derivatives” (BMC Chemistry, 2023) are described below.

For data set [1], the system named is BAX. The experiment in a line: ELISA BAX in MCF7 cells. In kind it is cell-based, human. As to conditions: MCF7 cells treated with IC50; untreated control 4.92. The source says: (§1) Elisa assay was used to determine the concentrations of Human caspases-3, -8, Bax, and Bcl2 in PACA2- and A549-treated cells. Also, the concentrations of caspase-8, Bax, and Bcl2 in MCF7-treated cells were detected. The procedures were followed up according to the instructions described in the following kits; Invitrogen human Caspase-3 Elisa Kit, Catalog KHO1091, DRG® human Caspase-8 ELISA Kit, Catalog (EIA-4863), Human Bax ELISA Kit (ab199080) and Human Bcl-2 ELISA Kit (ab119506) respectively. Shortly, the protocol described in the above kits was as followed; at the beginning, all the reagents, samples and standards were prepared. 100 μl of samples or standard were micro pipetted to each well of micro-well strip and kept at room temperature for 2 h. After washing the micro-well strips three times with washing buffer, the prepared antibody (anti-rabbit-IgG-HRP) at a concentration of 100 μl was added to each well at room temperature for 1 h. Then, the micro-well strips were washed again three times. Afterward, the prepared tetramethyl-benzidine (TMB) solution (100 μl) was added to the micro-well strips and kept for 10 min. At last, about 50 μl of stop solution was pipetted to each well to inactivate the enzyme completely. The absorbance of all samples was measured at a wavelength of 460 nm and compared to that of the standard. Curve fitting software was used to plot a standard curve and the concentrations for the unknown samples were measured from the standard curve.
Background: ELISA stands for enzyme-linked immunosorbent assay.

Data set [2] in a line: MTT assay, normal cell line BJ1. Type of data set: cell-based. The note with it: human, at 100 μg/ml, read-out: MTT cell proliferation mortality assay (%) BJ1.
Data set [3] has as its system HePG2 liver cancer cells. Nature of the data set: MTT assay, HePG2. As to conditions: Homo sapiens, HepG2, 72 h. The gist of the method: (§2)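 Cells seeded at 10 × 10^4 cells/well, 24 h at 37 ℃/5% CO2, then exposed to compound for 72 h (DMSO <0.2%); MTT ([…]) added for 4 h, formazan dissolved in 10% SDS overnight, absorbance read at 595 nm with 620 nm reference. IC50 as concentration killing 50% of cells; SI = IC50 in BJ1/IC50 in cancer line.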

The subject of data set [4] is IL-8. The experiment in a line: RT-qPCR IL-8 mRNA in MCF7. As to conditions: MCF7, vs negative control. Type of data set: cell-based, human. The protocol:
(§3) All of the extractions were conducted on ice with ice-cold reagents. Total RNA from the different cell lines was isolated using Trizol (Invitrogen; Life Technologies, USA) according to the method of Sthoeger et al.. The 260:280 ratios were measured to determine RNA quality after the isolation method was completed according to the manufacturer’s instructions. A high-capacity cDNA reverse transcription kit was used to produce complementary DNA (cDNA) (Applied Biosystems, USA). […] The relative gene expression method (i.e., ΔΔCT) was used to analyze the real-time PCR data, as explained in Applied Biosystem User Bulletin No. 2. Each sample and gene were normalized using the β-actin gene.
(Real-time PCR tracks product formation cycle by cycle.)

Data set [5] has as its system PACA2 pancreatic cancer cells. The experiment in a line: MTT assay, PACA2. The note with it: Homo sapiens, PaCa-2, 72 h. The gist of the method:
as §2

Data set [6] has as its system A549 lung cancer cells. The experiment in a line: MTT assay, A549. The note with it: Homo sapiens, A549, 72 h, read-out: MTT cell proliferation mortality assay (%) A549, at 100 μg/ml, 72 h. A digest of the protocol:
as §2
(Formazan colour is commonly taken as a measure of viable cells.)

For data set [7], the system named is P53. Nature of the data set: RT-qPCR P53 mRNA in MCF7. In kind it is cell-based, human. The note with it: MCF7, vs negative control. The protocol:
as §3

Data set [8] deals with PC3 prostate cancer cells. Nature of the data set: MTT assay, PC3. The note with it: Homo sapiens, 72 h. The gist of the method: as §2
The test system of data set [9] is MCF7 breast cancer cells. Nature of the data set: MTT assay, MCF7. As to conditions: Homo sapiens, MCF7, 72 h. The gist of the method: as §2
Data set [10] relates to Bcl-2. Nature of the data set: RT-qPCR Bcl-2 mRNA in MCF7. In kind it is cell-based, human. As to conditions: MCF7, vs negative control. The protocol:
as §3

Data set [11] concerns caspase 8. The experiment in a line: ELISA caspase 8 in MCF7 cells. In kind it is cell-based, human. As to conditions: MCF7 cells treated with IC50; untreated control 3.99.
Text: as §1

Converted amounts (≈) assume the structure as drawn. “Also recorded” adds a separate entry of the source.

Turning to `COc1ccc(-c2c(Cl)n(-c3ccc(Cl)cc3Cl)c3ncnc(N4CCOCC4)c23)cc1OC` [Compound 18b, 4-(6-chloro-7-(2,4-dichlorophenyl)-5-(3,4-dimethoxyphenyl)-7H-pyrrolo[2,3-d]pyrimidin-4-yl)morpholine], in data set [1], the “BAX level (ELISA)” value amounted to 7.25 pg/mL. In addition, the cytotoxicity at 72 h, 100 μg/ml in data set [2] worked out at 20.6 ± 2.1%. Also, the IC50 (usually the concentration needed to halve the response being measured) in data set [3] (read-out: IC50 HePG2) was 28.1 ± 0.4 µg/mL (≈ 54.1 µM); in data set [5] (read-out: IC50 PACA2), 15 ± 0.9 µg/mL (≈ 28.9 µM); in data set [8] (read-out: IC50 PC3), 19.2 ± 0.9 µg/mL (≈ 36.9 µM); in data set [9] (read-out: IC50 MCF7), 3.4 ± 0.3 µg/mL (≈ 6.54 µM). For the same molecule, the cytotoxicity at 100 µg/mL in [3] (read-out: MTT cell proliferation mortality assay (%) HePG2) worked out at 100%; in [5] (read-out: MTT cell proliferation mortality assay (%) PACA2) it was 100%; in data set [6], 11.2 ± 0.6%; in data set [8] (read-out: MTT cell proliferation mortality assay (%) PC3, at 100 μg/ml, 72 h), 100%; in [9] (read-out: MTT cell proliferation mortality assay (%) MCF7), 100%. Also, the “IL-8 mRNA level” value in [4] is on record as “lowered; also recorded: down-regulated”. The “P53 mRNA level” value in data set [7] is “significantly increased; also recorded: up-regulated”. For the same molecule, the “Bcl-2 mRNA level” value in [10] is listed as “down-regulated”. The “caspase 8 level (ELISA)” value in [11] was found to be 10.29 pg/mL.
